For one data set, the system named is humans or animals. Particulars: cited from earlier work.
For data set [1] the following is noted: room temperature; cited from earlier work.
The nature of data set [2]: Reconstitution of lyophilized cake: time, appearance, visual stability (no precipitation or phase separation). Format: physicochemical. The settings on record: PVP-PLA 90 mg/mL, 75 mM sodium phosphate buffer pH 7.4.
Protocol: PVP-PDLLA (POLYMER 1 and POLYMER 2) samples were dissolved in mixtures of water and various amounts of tert-butyl alcohol (TBA). Propofol is then added to the PVP-PDLLA solution. Water is then added to the TBA/PVP-PDLLA/propofol solution to the desired final volume. Final TBA concentration in these solutions was 10-30%. Drug loading levels, % w/w of propofol/(propofol PVP-PDLLA), were also varied from 5, 7, 8, 10, 12, 15 and 20%. Solutions were then frozen in a dry ice/acetone bath and lyophilized for at least 24 hours.
PVP-PDLLA (POLYMER 1) is dissolved directly in water at concentrations between 100 to 350 mg/mL. Propofol is added to the PVP-PDLLA solution and mixed until a homogenous solution is obtained. The solution is then diluted to a concentration of 1% w/v of propofol. 7, 10 and 12% w/w drug loading levels were tested. All solutions were then filtered using 0.2 μm sterile filters and frozen in acetone/dry ice bath or in −80° C. freezer for at least 4 hours before being lyophilized for 48 hours. Solid lyophilized cakes of 7, 10 and 12% w/w were reconstituted by adding water for injection.
PVP-PDLLA (lot # POLYMER 1, POLYMER 2, POLYMER 3, POLYMER 4 and POLYMER 5) is dissolved directly in 100 mM sodium phosphate buffer, pH 7.4, at concentrations between 100 to 350 mg/mL. Propofol is added to the PVP-PDLLA solution and mixed until a homogenous solution is obtained. […]

Converted amounts (≈) assume the structure as drawn.

`CC(C)c1cccc(C(C)C)c1O` [Propofol, 2,6-bis-(1-methylethyl)phenol]: the half life with humans or animals (in vivo) was 10 to 15 min. For the same molecule, the “time to hypnosis from the start of an administration” value with humans or animals (intravenous injection of a therapeutic dose) is ≤ 40 s. The aqueous solubility in data set [1] is ~154 µg/mL (≈ 864 µM).

Take `Cc1ccc2ccccc2n1` [quinaldine]: in data set [2], the “appearance after reconstitution by addition of water” value is given as “Clear solutions”.

For the molecule `OCCOc1ccccc1` [2-phenoxyethanol], in data set [2], the “appearance after reconstitution by addition of water” value is listed as “Clear solutions”.

Broadly, the aqueous solubility is the concentration that dissolves in the medium under given conditions.

(Values after patent US10561735B2, “Solid formulations of liquid biologically active agents” (Paladin Labs Inc., priority 2004, dated 2020).)
